Consider 1 compound from BindingDB's records for doi:10.1042/0264-6021:3510095 (University of Dundee, 2001).

What is called IC50 is the concentration needed to halve the response being measured. A higher IC50 goes with weaker potency in that assay.

The nature of this assay: Inhibition of His-tagged human PDK1 expressed in Sf21 cells.

With `CCCCCCOC(=O)[C@@]1(O)C[C@H]2O[C@]1(C)n1c3ccccc3c3c4c(c5c6ccccc6n2c5c31)C(=O)NC4` [KT-5720], it took 300 nM to reach half-maximal inhibition (IC50).
